# Measurements: US8119691B2, “Method for treating airway hyper-responsiveness with lipoxin analogs” (National Institutes of Health (NIH), priority 2001, dated 2012)
# Entries after “also recorded” stand apart in the source; their conditions may differ.
# Experiments:
# [1] = tested on: OVA sensitized and challenged mice; assay: Mediator profile (cytokines, lipid mediators) in BAL fluid by ELISA, OVA sensitized and challenged mice; type: in vivo, mouse (BALB/c); settings: LXa 10 μg i.v.
# Procedure: FIG. 3. […] Bronchoalveolar lavage fluids were obtained from OVA sensitized and challenged mice. Leukocytes in bronchoalveolar lavage fluid were enumerated and identified after Wright-Giemsa stain (a). Mediator profile of (b) specific cytokines (IL-5, IL-12, IL-13, eotaxin and TNFα), and lipid mediators, including PGE2 (c), LTB4 and cysLT's (d) were determined by ELISA's in materials from control animals and those receiving LXa (10 μg, i.v.). Results are expressed as mean±SEM (n≧6, d≧2). *P<0.05 by Student's t-test compared to control animals.
# Sensitization and challenge protocols. Five to seven week old male BALB/c (Charles River Laboratories, Wilmington, Mass.) or female hCD11b-hALX FvB transgenic mice were housed in isolation cages under viral antibody-free conditions. After Harvard Medical Area IRB approval (Protocol #02570), mice were sensitized with intraperitoneal injections of ovalbumin (OVA) (Grade III; Sigma Chemical Co., St. Louis, Mo.) (10 μg) plus 1 mg aluminum hydroxide (ALUM) (J.T. Baker Chemical Co.; Phillipsburg, N.J.) as adjuvant in 0.2 ml PBS on days 0 and 7. On days 14, 15, 16 and 17, the mice received 10 μg/mouse of an analog (ref. 16) of LXA4 (15-epi,16-para-fluoro-phenoxy-LXA4-methyl ester, LXa) or PBS with 1.6 mM CaCl2 and 1.6 mM MgCl2 (0.1 ml) by intravenous injection at least 1 h prior to an aerosol challenge containing either PBS or 6% OVA for 25 min/day. The analog was designed to resist rapid enzymatic inactivation and was based on the structure of the aspirin-triggered 15-epi-LXA4 (ref. 16), which carries its carbon 15 position alcohol in the R configuration or epimeric (R) to native LXA4. On day 18, 24 h after the last aerosol challenge, airway responsiveness to intravenous methacholine (33-1000 μg/kg) was measured, bilateral bronchoalveolar lavage (BAL) (2 aliquots of 1 ml PBS plus 0.6 mM EDTA) was performed and tissues (whole blood, lungs, mediastinal lymph nodes and spleen) were harvested for histological analysis. Lung resistance (RL) was measured using a sealed constant mass plethysmograph. The effective dose of methacholine required to increase RL to 200% of control values was defined as the ED200 and used as an index of airway responsiveness (as in refs. 14, 15). For mice studied using a whole body plethysmograph to assess airway responsiveness (Buxco), each mouse was placed into a chamber and box pressure/time waveform was analyzed to yield the indicator of airflow obstruction, enhanced pause (Penh). PBS or methacholine (100 mg/ml) was given by aerosol through an inlet of the chamber for 4.5 min. Readings were initiated at 3 min and continued for 12 min. Peak and one min average Penh values were determined. Serum total IgE levels were determined by ELISA (Crystal Chem, Chicago, Ill.). In situ hybridization of murine ALX was performed using an anti-sense oligonucleotide probe (534 bp in length) corresponding to nucleic acids +581-+1115 (GenBank Accession No. NM008042) with the assistance of the Dana-Farber/Harvard Cancer Center Pathology Core Facility (under the direction of Dr. Massimo Loda).
# Allergen-initiated respiratory inflammation. Measurement of inflammatory mediators was determined in cell-free BAL fluid (2000 g, 10 min) by sensitive and specific ELISA's, in tandem, for interleukin-5 (IL-5), IL-13, eotaxin, tumor necrosis factor (TNFα) (R&D Systems, Minneapolis, Minn.), LTB4, cysteinyl LT, PGE2 (Cayman Chemical Co., Ann Arbor, Mich.), and LXA4 (Neogen, Lexington, Ky.). Cells were resuspended in HBSS, enumerated by hemocytometer, and concentrated onto microscope slides by cytocentrifuge (STATspin) (265 g). Cells were stained with a Wright-Giemsa stain (Sigma Chemical Co.) to determine leukocyte differentials (after counting ≧200 cells).
# OVA sensitized FVB mice = assay: Allergic airway inflammation, BAL leukocyte differentials, comparison with Montelukast (FIG. 7); type: in vivo, mouse (FVB); set-up: dose or concentration left out as unconfirmed; settings: days 14-17, at least 1 h prior to OVA aerosol; BAL day 18
# Description: FIG. 7. Depicts regulation of allergic airway inflammation by 15-epi,16-para-fluoro-phenoxy-LXA4-methyl ester in comparison to a commercially available drug (Montelukast) used to treat chronic asthma.
# Five to seven week old male FVB (Charles River Laboratories, Wilmington, Mass.) mice were housed in isolation cages under viral antibody-free conditions. After Harvard Medical Area IRB approval (Protocol #02570), mice were sensitized with intraperitoneal injections of ovalbumin (OVA) (Grade III; Sigma Chemical Co., St. Louis, Mo.) (10 mg) plus 1 mg aluminum hydroxide (ALUM) (J. T. Baker Chemical Co.; Phillipsburg, N.J.) as adjuvant in 0.2 ml PBS on days 0 and 7. On days 14, 15, 16 and 17, the mice received an analog of LXA4 (15-epi,16-para-fluoro-phenoxy-LXA4-methyl ester) ([…], 21.7 nmoles), montelukast ([…], 21.7 nmoles) or PBS with 1.6 mM CaCl2 and 1.6 mM MgCl2 (0.1 ml) by intravenous injection at least 1 h prior to an aerosol challenge containing either PBS or 6% OVA for 25 min/day. On day 18, 24 h after the last aerosol challenge, bilateral bronchoalveolar lavage (BAL) (2 aliquots of 1 ml PBS plus 0.6 mM EDTA) was performed. BAL fluids were centrifuged (2000 g, 10 min) and cells were resuspended in HBSS, enumerated by hemocytometer, and concentrated onto microscope slides by cytocentrifuge (STATspin) (265 g). […]
# [2] = target: T1, recombinant cysLT1 receptors (Homo sapiens, UniProt Q9Y271); settings: CHO cells, in vitro (ref. 12); cited from earlier work
# T1 construct: host or cells: Chinese hamster ovary cells (recombinant expression)
# T1 sequence (Q9Y271 1-337): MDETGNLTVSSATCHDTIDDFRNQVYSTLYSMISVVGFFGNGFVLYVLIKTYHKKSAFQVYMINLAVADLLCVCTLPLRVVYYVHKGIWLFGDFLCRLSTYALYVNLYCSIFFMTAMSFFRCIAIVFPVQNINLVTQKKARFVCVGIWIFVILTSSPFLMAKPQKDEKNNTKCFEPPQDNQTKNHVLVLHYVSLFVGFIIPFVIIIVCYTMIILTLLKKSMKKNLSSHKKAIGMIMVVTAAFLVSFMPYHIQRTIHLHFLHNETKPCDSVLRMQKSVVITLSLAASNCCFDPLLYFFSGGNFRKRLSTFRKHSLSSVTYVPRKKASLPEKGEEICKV
smiles,measurement,setting,value
"COC(=O)CCC[C@H](O)[C@H](O)/C=C/C=C/C=C\C=C\[C@H](O)COc1ccc(F)cc1 [LXa, 15-epi,16-para-fluoro-phenoxy-LXA4-methyl ester]",CysLT's in BAL fluid,[1],decreased
same,IL-5 in BAL fluid,[1],decreased
same,IL-12 in BAL fluid,[1],not similarly reduced; also recorded: did not significantly alter IL-12 levels
same,IL-13 in BAL fluid,[1],decreased
same,PGE2 in BAL fluid,[1],decreased
same,TNF in BAL fluid,[1],not similarly reduced
same,eotaxin in BAL fluid,[1],decreased
same,lymphocyte reduction compared with Montelukast,OVA sensitized FVB mice,statistically more effective than Montelukast in terms of lymphocyte reduction
same,competition for binding at LTD4 recognition sites and recombinant cysLT1 receptors,[2],compete for binding with high affinity at LTD4 recognition sites
